Results published in paper PMC11303286, “In silico and in vitro chemometrics, cell toxicity and permeability of naringenin 8-sulphonate and derivatives” (Frontiers in Pharmacology, 2024).

What was measured:
Caco-2 cells = details: ref Tian et al., 2009; cited from earlier work
[1] = test system: Caco-2 human intestinal epithelial cells; assay: Alkaline comet assay (DNA damage), Caco-2; details: for percentage of DNA in tail, first quartile / percentage of DNA in tail, third quartile / percentage of DNA in tail, median: Caco-2, 100 μM, 24 h; for percentage of DNA in tail, median: negative control 20.98; for genotoxicity: DNA fragmentation: Caco-2, alkaline comet assay, 100 μM
Protocol: Caco-2 cells were incubated for 24 h in 12 well plates at a density of 350,000 cells/well. After this, they were incubated with each sample and negative control for 24 h and collected using 500 μL of trypsin (0.25%)-ethylenediaminetetraacetic acid (EDTA) (0.038%), which was then inactivated with 1 mL of Hanks’ Balanced Salt Solution (HBSS). The cell suspension was centrifuged at 1,200 rpm during 8 min at room temperature, supernatant was discarded, and cells were resuspended in 100 μL of HBSS.
Electrophoresis was carried out to evaluate the extent of DNA fragmentation. For this, agarose-coated slides were prepared using an 1% agarose solution. A volume of 20 μL from the cell suspension was involved in 170 μL of 1% low gelling temperature agarose solution and applied to the slides, which were then placed at 4°C until solidification. Slides were submerged in a lysis solution (2.5 M NaCl, 0.1 M EDTA, 10 mM Tris-HCl, pH 10) with 1% Triton-X 100, at 4°C and sheltered from the light, for 105 min. After this, slides were submerged in the electrophoresis buffer (300 mM NaOH, 1 mM EDTA, pH 13) for 40 min. A Sub-Cell GT Horizontal Electrophoresis System 15 × 15 cm tray (Bio-Rad Laboratories Lda, Oeiras, Portugal) was used to run the electrophoresis at 25 V and 240 mA during 30 min in the dark. In the end of the electrophoresis, slides were submerged for three times in a neutralization solution (0.4 M Tris-HCl, pH 7.5), during 5 min each.
For the fluorescence microscopy analysis, DAPI was added for 15 min at 0.5 μg mL^-1, the slides being washed once with HBSS in the end. Images were acquired using a Nikon Eclipse Ts2R-FL inverted microscope with a Retiga R1 camera (01-RET-R1-RM) and CFI Plan Fluor ×10 DIC objective. DNA damage was calculated using the AutoComet algorithm ([Barbe et al., 2023]) by dividing the amount of fluorescence signal correspondent to the DNA content in the comet’s tail by the signal correspondent to the total DNA in the comet. MMS 500 μM, incubated for 30 min, was used as positive control for DNA fragmentation and consequent DNA tail formation.
Comet assay was performed to evaluate possible genotoxicity of compounds. […] The percentage of DNA in the tail may be used as a parameter to evaluate the damage on DNA ([Clementi et al., 2021]).

[2] = MTT cell viability assay, HaCaT; assay type: cell-based, human; details: human, HaCaT keratinocyte cells, compared to control
Protocol: (§1) MRC-5 human lung fibroblast cells (Sigma-Aldrich, St. Louis, MO, United States) were cultured in MEM, while HaCaT human keratinocyte cells (ATCC, Manassas, VA, United States) and Caco-2 human intestinal epithelial cells (American Type Culture Collection, LGC Standards S.L.U., Spain) were cultured in DMEM. Both medium were supplemented with 10% of FBS and 1% of penicillin/streptomycin. Cells were incubated in 75 cm^2 cell culture flasks, which were placed in an incubator at 37°C, with a humidified atmosphere of 5% CO2. For the experiments, cells were seeded for 24 h in 96-well plates. MRC-5 and Caco-2 were seeded at 20,000 cells/well and HaCaT were seeded at 15,000 cells/well.
(§2) Toxicity of compounds, at 50 and 100 μM, was assessed against non-cancerous cell lines through the MTT assay after 24 h of incubation, following the protocol described in [Macedo et al., (2023)], with slight modifications. Thus, cells were exposed to MTT for 2 h, in the case of MRC-5, and 1 h 30 min, in the case of HaCaT. This assay was also performed to evaluate the response of Caco-2 cells to compounds at concentrations from 125 to 1,000 μM during the permeability assay, these cells being incubated for 4 h with the samples and exposed to MTT for 2 h. Results were expressed as percentage of viability compared to the control and correspond to the mean of, at least, three independent experiments performed in triplicate.

[3] = MTT cell viability assay, MRC-5; assay type: cell-based, human; details: human, MRC-5 lung fibroblast cells, MRC-5, 100 μM, compared to control
Protocol: as §1, §2

Caco-2 cell monolayers = assay: Caco-2 permeability assay (Transwell); assay type: in vitro ADME, human; details: for P app, experimental: Caco-2 permeability model, 1,000 μM, 240 min time point; for percentage of the amount placed in the apical chamber found in the basolateral chamber: after 240 min, 1,000 μM, apical to basolateral; for P app class, experimental: classification ref Karakucuk et al., 2021
Protocol: (§3) Caco-2 cells were seeded for 21 days at 112,000 cells/well in Corning® 3460 Transwell® 12 mm Polyester Membrane Inserts (Corning Incorporated, ME, United States). At every other day, culture medium was replaced and the transepithelial electrical resistance was measured to ensure values above 400 ohms until the day of the assay, to guarantee membrane integrity. For quality control purposes, Lucifer Yellow was used at 100 μg mL^-1 in the day of the assay. Briefly, one of the inserts was incubated with Lucifer Yellow during 1 h and, after that, its concentration was measured in the basolateral chamber, based on fluorescence intensity (λexc = 485 nm and λem = 535 nm). Lucifer Yellow passage, from the apical to the basolateral chamber equal or lower than 3% was considered indicative of a well-defined cell barrier phenotypically translated as good membrane integrity.
(§4) Treatments were applied in the transwells apical chamber and the basolateral chamber was filled with HBSS with calcium (1.26 mM) and magnesium (0.81 mM). At specific timepoints, namely 10, 20, 30, 60, 90, 120 and 180 min, half of the volume from the basolateral chamber was collected and replaced by the same volume of HBSS. In the last time point, at 240 min, content of both apical and basolateral compartments was collected to calculate the final mass balance. Transwells were maintained in agitation at 50 rpm, 37°C and 5% CO2 between the timepoints.
(§5) Concentration of each analyte in the different compartments was determined by HPLC-DAD using a Gilson Medical Electronics HPLC system (Villiers le Bel, France), with a Spherisorb ODS® (250 × 4.6 mm, 5 μm particle size, 100 Å pore size) column (PSS831915, Waters, Dublin, Ireland). Elution was performed for 7 min, with a flow rate of 900 μL min^-1. A mixture of methanol: water-formic acid (1%) was used as mobile phase, in a proportion of 65:35 for naringenin and 47:53 for naringenin 4’-O-sulphate and naringenin 8-sulphonate. Quantifications were performed at 285 nm.
(§6) Results were obtained from three independent experiments and each sample was analysed in triplicate. Apparent permeability (P app ) coefficient (cm s^-1) was calculated based on the equation P app = ΔQ/Δt×(1/(A×C0)), where ΔQ/Δt represents the amount of compound over time (mol s^-1), A is the monolayer area (cm^2) and C0 (mol mL^-1) is the initial drug concentration of the apical side ([Nait et al., 2009]; [Silva et al., 2020]).

[4] = Caco-2 permeability assay (Transwell); assay type: in vitro ADME, human; details: human; Caco-2 permeability model, 1,000 μM, 240 min time point; read-out: P app, experimental
Protocol: as §3, §4, §5, §6

[5] = test system: Caco-2 human intestinal epithelial cells; assay: MTT cell viability assay, Caco-2 (before permeability assay); assay type: cell-based; details: Caco-2, 4 h, concentrations until 1,000 μM
Protocol: as §1, §2
The ability of naringenin 8-sulphonate to cross biological barriers was tested using a Caco-2 permeability model. The first step for this assay was to test the possible impact of high concentrations of samples in Caco-2 cells during the time of the experiment. Thus, an MTT assay, using concentrations of naringenin, naringenin 4’-O-sulphate and naringenin 8-sulphonate until 1,000 μM, was performed.

[6] = test system: HaCaT human keratinocyte cells; assay: MTT cell viability assay, HaCaT; assay type: cell-based; details: 24 h, compared to control
Protocol: as §1, §2

[7] = test system: MRC-5 human lung fibroblast cells; assay: MTT cell viability assay, MRC-5; assay type: cell-based; details: 24 h; for cell viability: compared to control
Protocol: as §1, §2

HT-29 = test system: HT-29; design: method as in Kocyigit et al., 2016; details: ref Kocyigit et al., 2016; cited from earlier work
[8] = test system: human umbilical vein endothelial cells (HUVECs); design: method as in earlier work; details: ref Çeker et al., 2019; cited from earlier work
HT29 cells = test system: HT29 cells; design: method as in Baranowska et al., 2021; details: concentrations up to 100 μM; ref Baranowska et al., 2021; cited from earlier work
L-929 = test system: L-929; design: method as in Kocyigit et al., 2016; details: ref Kocyigit et al., 2016; cited from earlier work
MCF-7 = test system: MCF-7; design: method as in Kocyigit et al., 2016; details: ref Kocyigit et al., 2016; cited from earlier work
PC-12 = test system: PC-12; design: method as in Kocyigit et al., 2016; details: ref Kocyigit et al., 2016; cited from earlier work

Structure (SMILES) | P app, experimental (Caco-2 cell monolayers) [nm/s] | percentage of the amount placed in the apical chamber found in the basolateral chamber (Caco-2 cell monolayers) [%] | P app class, experimental (Caco-2 cell monolayers) | Papp A→B at 240 min, 1000 μM [4] [nm/s] | reported P app (Caco-2 cells) [nm/s] | percentage of DNA in tail, first quartile [1] [%] | percentage of DNA in tail, third quartile [1] [%] | percentage of DNA in tail, median [1] [%] | genotoxicity: DNA fragmentation [1] | viability at 24 h, 50 µM [2] [%] | viability at 24 h, 100 µM [2] [%] | changes on cell viability [5] | also measured
O=c1c(O)c(-c2ccc(O)cc2O)oc2cc(O)cc(O)c12 [morin] | – | – | – | – | 6.2 | – | – | – | – | – | – | – | –
O=c1c(O)c(-c2cc(O)c(O)c(O)c2)oc2cc(O)cc(O)c12 [myricetin] | – | – | – | – | 17 | – | – | – | – | – | – | – | –
O=C1C[C@@H](c2ccc(O)cc2)Oc2c1c(O)cc(O)c2S(=O)(=O)O [naringenin 8-sulphonate] | 26.8 | 10.41 | → (moderate P app) | – | – | 7.25 | 66.61 | 31.18 | caused significant DNA fragmentation | – | – | no significant changes on cell viability | cell viability ([6]; 50 μM): 92.99%; cell viability ([6]; 100 μM): 91.95%; cell viability ([7]; MRC-5, 50 μM): 94.77%; cell viability ([7]; MRC-5, 100 μM): 94.71%

Second part, led by results:

P app, experimental (Caco-2 cell monolayers) [nm/s] | percentage of the amount placed in the apical chamber found in the basolateral chamber (Caco-2 cell monolayers) [%] | P app class, experimental (Caco-2 cell monolayers) | Papp A→B at 240 min, 1000 μM [4] [nm/s] | Structure (SMILES) | reported P app (Caco-2 cells) [nm/s] | percentage of DNA in tail, first quartile [1] [%] | percentage of DNA in tail, third quartile [1] [%] | percentage of DNA in tail, median [1] [%] | genotoxicity: DNA fragmentation [1] | viability at 24 h, 50 µM [2] [%] | viability at 24 h, 100 µM [2] [%] | changes on cell viability [5] | also measured
34.5 | 12.73 | → (moderate P app) | 34.5 | O=C1C[C@@H](c2ccc(OS(=O)(=O)O)cc2)Oc2cc(O)cc(O)c21 [naringenin 4’-O-sulphate] | – | 4.33 | 33.90 | 15.89 | did not | 95.4 | 89.2 | no significant changes on cell viability | viability at 24 h, 100 µM [3]: 81.5%
82.9 | 32.01 | → (moderate P app) | 82.9 | O=C1C[C@@H](c2ccc(O)cc2)Oc2cc(O)cc(O)c21 [naringenin] | – | 14.24 | 63.36 | 33.07 | caused significant DNA fragmentation | 93.2 | 91.9 | no significant changes on cell viability | DNA damage (HT-29): able to cause DNA damage; concentration causing the best antigenotoxic effects [8]: 8 µM; concentrations causing DNA damage [8]: ≥ 50 µM; impact on DNA integrity (HT29 cells): no impact on DNA integrity; DNA damage (L-929): able to cause DNA damage; DNA damage (MCF-7): able to cause DNA damage; effect on cell viability ([7]; MRC-5, 50 and 100 μM): did not elicit any significant decrease; DNA damage (PC-12): able to cause DNA damage
